Data as given in PMC7265341, “Quantifying CDK inhibitor selectivity in live cells” (Nature Communications, 2020).
Where two headings read alike, the source gives them in different places.

Experiments:
CDK10/Cyclin L2 = CDK10/Cyclin L2 (Homo sapiens, UniProt Q15131); test: NanoBRET live-cell target engagement, CDK10-NanoLuc/Cyclin L2 in HEK-293; conditions: 10µM
CDK18/Cyclin Y = CDK18/Cyclin Y (Homo sapiens, UniProt Q07002); test: NanoBRET live-cell target engagement, CDK18-NanoLuc/Cyclin Y in HEK-293; assay type: binding; conditions: CDK18/Y
CDK11A/Cyclin L2 = target: T1, CDK11A/Cyclin L2 (Homo sapiens, UniProt Q9UQ88); test: NanoBRET live-cell target engagement, CDK11A-NanoLuc/Cyclin L2 in HEK-293; assay type: binding; conditions: CDK11a/L2, 10µM
T1 sequence (Q9UQ88 1-783): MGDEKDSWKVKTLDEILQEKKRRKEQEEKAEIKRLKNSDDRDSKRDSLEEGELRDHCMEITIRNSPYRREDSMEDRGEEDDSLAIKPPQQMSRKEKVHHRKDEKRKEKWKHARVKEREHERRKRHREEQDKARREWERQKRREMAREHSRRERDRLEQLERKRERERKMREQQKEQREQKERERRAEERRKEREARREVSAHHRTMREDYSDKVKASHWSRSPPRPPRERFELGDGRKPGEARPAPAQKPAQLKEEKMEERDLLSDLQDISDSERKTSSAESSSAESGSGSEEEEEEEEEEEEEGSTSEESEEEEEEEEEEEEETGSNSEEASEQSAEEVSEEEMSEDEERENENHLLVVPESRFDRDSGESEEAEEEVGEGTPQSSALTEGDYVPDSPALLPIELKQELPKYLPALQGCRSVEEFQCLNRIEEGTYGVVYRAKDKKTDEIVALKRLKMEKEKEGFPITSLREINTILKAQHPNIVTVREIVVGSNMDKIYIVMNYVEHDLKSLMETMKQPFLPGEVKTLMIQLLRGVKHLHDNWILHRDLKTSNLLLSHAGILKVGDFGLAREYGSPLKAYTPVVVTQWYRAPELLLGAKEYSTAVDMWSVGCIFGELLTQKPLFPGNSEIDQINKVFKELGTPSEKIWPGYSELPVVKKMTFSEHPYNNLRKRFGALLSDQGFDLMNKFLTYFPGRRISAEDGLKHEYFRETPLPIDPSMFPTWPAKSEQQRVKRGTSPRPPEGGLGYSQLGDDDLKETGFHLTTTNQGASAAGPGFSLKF

CDK13/Cyclin K = CDK13/Cyclin K (Homo sapiens, UniProt Q14004); test: NanoBRET live-cell target engagement, CDK13-NanoLuc/Cyclin K in HEK-293; assay type: binding; conditions: CDK13/K, 10µM
CDK14/Cyclin Y = CDK14/Cyclin Y (Homo sapiens, UniProt O94921); test: NanoBRET live-cell target engagement, CDK14-NanoLuc/Cyclin Y in HEK-293; assay type: binding; conditions: CDK14/Y, 10µM
CDK14/Cyclin Y, sequence (O94921 whole entry): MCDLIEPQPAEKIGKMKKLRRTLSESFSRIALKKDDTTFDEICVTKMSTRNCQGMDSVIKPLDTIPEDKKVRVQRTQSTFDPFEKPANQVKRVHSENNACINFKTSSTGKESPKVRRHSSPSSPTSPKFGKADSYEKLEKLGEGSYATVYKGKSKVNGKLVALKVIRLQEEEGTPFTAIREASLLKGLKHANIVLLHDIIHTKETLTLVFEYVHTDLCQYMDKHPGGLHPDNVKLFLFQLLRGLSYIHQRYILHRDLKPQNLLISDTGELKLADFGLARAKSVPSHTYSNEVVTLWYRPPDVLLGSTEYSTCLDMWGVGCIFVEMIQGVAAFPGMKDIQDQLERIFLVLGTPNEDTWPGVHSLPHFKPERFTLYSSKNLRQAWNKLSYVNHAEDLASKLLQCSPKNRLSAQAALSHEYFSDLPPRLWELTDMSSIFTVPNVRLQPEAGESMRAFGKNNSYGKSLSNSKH
CDK14/Cyclin Y, sequence (Q8ND76 whole entry partner): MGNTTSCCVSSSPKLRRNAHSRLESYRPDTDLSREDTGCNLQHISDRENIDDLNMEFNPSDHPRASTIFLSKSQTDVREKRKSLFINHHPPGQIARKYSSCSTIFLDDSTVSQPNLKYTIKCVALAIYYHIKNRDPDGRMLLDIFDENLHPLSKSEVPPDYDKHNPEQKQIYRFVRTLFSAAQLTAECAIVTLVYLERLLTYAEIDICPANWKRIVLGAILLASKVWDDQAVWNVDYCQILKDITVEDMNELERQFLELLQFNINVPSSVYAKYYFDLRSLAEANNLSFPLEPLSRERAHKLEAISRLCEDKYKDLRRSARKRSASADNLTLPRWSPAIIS

CDK4/Cyclin D1 = CDK4/Cyclin D1 (Homo sapiens, UniProt P11802); test: NanoBRET live-cell target engagement, NanoLuc-CDK4/Cyclin D1 in HEK-293; assay type: binding; conditions: CDK4/D1, 10µM
CDK4/Cyclin D1, sequence (P11802 whole entry): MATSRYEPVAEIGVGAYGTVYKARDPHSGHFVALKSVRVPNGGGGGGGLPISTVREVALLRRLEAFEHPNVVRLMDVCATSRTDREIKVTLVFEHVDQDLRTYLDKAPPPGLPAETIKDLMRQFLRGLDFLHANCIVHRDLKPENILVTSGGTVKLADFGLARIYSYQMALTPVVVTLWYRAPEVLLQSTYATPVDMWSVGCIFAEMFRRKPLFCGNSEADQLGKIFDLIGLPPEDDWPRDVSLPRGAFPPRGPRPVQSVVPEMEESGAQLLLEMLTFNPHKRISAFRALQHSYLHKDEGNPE
CDK4/Cyclin D1, sequence (P24385 whole entry partner): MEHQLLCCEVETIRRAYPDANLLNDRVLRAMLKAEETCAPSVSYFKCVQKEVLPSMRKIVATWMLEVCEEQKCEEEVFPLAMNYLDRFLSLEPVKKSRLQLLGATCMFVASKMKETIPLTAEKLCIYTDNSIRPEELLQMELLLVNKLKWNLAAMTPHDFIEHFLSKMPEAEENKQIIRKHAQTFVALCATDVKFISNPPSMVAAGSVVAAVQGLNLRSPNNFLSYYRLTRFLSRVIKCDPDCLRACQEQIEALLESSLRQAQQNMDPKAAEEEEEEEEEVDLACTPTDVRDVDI

CDK8/Cyclin C = CDK8/Cyclin C (Homo sapiens, UniProt P49336); test: NanoBRET live-cell target engagement, NanoLuc-CDK8/Cyclin C in HEK-293; assay type: binding; conditions: CDK8/C
CDK1/Cyclin E1 = CDK1/Cyclin E1 (Homo sapiens, UniProt P06493); test: NanoBRET live-cell target engagement, CDK1-NanoLuc/Cyclin E1 in HEK-293; assay type: binding; conditions: CDK1/E1, 10µM
CDK1/Cyclin E1, sequence (P06493 whole entry): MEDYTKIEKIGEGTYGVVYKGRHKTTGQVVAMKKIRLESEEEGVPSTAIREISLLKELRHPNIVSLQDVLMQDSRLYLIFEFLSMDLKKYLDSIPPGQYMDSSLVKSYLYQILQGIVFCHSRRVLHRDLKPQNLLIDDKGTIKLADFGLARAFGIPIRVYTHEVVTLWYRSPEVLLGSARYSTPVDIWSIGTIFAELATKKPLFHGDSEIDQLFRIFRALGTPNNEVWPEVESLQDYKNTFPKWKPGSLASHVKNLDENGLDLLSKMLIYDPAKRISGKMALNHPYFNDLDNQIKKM
CDK1/Cyclin E1, sequence (P24864 whole entry partner): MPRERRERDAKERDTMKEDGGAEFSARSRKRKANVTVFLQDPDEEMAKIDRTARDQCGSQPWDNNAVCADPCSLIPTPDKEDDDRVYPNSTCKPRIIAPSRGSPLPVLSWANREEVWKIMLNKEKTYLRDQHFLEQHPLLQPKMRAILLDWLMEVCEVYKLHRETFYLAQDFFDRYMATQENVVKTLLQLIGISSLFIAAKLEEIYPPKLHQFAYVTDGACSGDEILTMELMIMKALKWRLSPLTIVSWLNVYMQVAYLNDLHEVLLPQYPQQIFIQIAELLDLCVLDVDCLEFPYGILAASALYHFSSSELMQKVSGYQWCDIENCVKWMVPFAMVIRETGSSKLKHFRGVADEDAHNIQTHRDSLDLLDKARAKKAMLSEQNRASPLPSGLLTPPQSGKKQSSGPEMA

CDK19/Cyclin C = CDK19/Cyclin C (Homo sapiens, UniProt Q9BWU1); test: NanoBRET live-cell target engagement, NanoLuc-CDK19/Cyclin C in HEK-293
CDK19/Cyclin C, sequence (Q9BWU1 whole entry): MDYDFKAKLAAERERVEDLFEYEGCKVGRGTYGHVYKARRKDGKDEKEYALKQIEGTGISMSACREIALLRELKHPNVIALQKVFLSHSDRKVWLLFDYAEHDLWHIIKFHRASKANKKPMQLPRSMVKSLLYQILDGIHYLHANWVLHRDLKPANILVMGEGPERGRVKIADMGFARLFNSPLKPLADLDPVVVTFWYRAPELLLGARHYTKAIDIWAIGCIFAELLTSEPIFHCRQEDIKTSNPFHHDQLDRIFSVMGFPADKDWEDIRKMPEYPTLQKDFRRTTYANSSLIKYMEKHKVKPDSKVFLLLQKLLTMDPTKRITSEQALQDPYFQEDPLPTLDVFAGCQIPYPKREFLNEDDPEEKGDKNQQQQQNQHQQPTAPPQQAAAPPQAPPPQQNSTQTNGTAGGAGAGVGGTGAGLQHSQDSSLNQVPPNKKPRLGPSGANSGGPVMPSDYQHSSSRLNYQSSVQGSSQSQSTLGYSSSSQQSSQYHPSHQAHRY
CDK19/Cyclin C, sequence (P24863 whole entry partner): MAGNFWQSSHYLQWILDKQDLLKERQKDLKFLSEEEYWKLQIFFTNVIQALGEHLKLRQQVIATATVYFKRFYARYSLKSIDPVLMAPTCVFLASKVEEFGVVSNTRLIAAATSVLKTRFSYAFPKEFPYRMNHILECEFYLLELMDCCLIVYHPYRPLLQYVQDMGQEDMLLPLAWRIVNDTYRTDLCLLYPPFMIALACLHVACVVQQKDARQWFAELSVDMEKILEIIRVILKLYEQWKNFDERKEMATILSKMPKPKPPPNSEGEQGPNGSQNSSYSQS

CDK6/Cyclin D1 = CDK6/Cyclin D1 (Homo sapiens, UniProt Q00534); test: NanoBRET live-cell target engagement, NanoLuc-CDK6/Cyclin D1 in HEK-293; assay type: binding; conditions: CDK6/D1, 10µM
CDK15/Cyclin Y = CDK15/Cyclin Y (Homo sapiens, UniProt Q96Q40); test: NanoBRET live-cell target engagement, NanoLuc-CDK15/Cyclin Y in HEK-293; assay type: binding; conditions: CDK15/Y, 10µM
CDK16/Cyclin Y = CDK16/Cyclin Y (Homo sapiens, UniProt Q00536); test: NanoBRET live-cell target engagement, CDK16-NanoLuc/Cyclin Y in HEK-293; assay type: binding; conditions: CDK16/Y, 10µM
CDK11B/Cyclin L2 = CDK11B/Cyclin L2 (Homo sapiens, UniProt P21127); test: NanoBRET live-cell target engagement, CDK11B-NanoLuc/Cyclin L2 in HEK-293; assay type: binding; conditions: CDK11b/L2, 10µM
CDK11B/Cyclin L2, sequence (P21127 1-782 isoform P21127-2): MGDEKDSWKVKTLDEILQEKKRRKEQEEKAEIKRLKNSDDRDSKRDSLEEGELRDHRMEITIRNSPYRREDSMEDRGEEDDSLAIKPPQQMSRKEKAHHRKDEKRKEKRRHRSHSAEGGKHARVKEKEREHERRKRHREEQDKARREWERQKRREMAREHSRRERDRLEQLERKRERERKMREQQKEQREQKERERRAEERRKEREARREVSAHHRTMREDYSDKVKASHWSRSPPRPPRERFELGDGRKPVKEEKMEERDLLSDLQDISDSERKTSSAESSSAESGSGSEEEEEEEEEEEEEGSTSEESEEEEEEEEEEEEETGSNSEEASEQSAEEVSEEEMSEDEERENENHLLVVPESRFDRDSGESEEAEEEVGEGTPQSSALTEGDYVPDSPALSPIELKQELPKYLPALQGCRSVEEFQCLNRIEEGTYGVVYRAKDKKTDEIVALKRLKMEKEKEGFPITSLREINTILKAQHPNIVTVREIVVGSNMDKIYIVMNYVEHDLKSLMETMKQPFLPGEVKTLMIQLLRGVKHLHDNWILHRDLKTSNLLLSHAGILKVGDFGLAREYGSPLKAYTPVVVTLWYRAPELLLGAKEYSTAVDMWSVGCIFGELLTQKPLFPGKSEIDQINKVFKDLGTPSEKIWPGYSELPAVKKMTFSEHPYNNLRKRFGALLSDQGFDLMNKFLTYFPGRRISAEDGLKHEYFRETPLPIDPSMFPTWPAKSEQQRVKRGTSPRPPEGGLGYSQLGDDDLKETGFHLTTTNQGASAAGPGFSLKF

CDK5/CDK5R1 = CDK5/CDK5R1 (Homo sapiens, UniProt Q00535); test: NanoBRET live-cell target engagement, CDK5-NanoLuc/CDK5R1 in HEK-293; assay type: binding; conditions: CDK5/CDK5R1, 10µM
CDK5/CDK5R1, sequence (Q00535 whole entry): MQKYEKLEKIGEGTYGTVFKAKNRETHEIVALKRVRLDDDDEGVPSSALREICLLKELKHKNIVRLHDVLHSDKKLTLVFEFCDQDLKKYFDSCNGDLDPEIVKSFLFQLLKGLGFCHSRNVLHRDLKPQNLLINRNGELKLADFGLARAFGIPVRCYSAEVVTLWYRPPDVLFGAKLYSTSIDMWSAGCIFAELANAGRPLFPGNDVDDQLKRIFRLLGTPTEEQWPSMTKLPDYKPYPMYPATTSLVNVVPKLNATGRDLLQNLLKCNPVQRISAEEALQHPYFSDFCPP
CDK5/CDK5R1, sequence (Q15078 whole entry partner): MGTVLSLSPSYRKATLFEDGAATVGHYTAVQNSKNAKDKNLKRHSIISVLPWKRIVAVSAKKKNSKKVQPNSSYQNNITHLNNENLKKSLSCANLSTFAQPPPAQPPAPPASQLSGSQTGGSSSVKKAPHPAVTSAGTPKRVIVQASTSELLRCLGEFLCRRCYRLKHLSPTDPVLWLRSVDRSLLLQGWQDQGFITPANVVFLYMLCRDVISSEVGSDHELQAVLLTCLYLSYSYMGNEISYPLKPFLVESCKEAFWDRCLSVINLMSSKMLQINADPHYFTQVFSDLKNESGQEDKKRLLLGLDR

CDK7 = CDK7 (Homo sapiens, UniProt P50613); test: NanoBRET live-cell target engagement, NanoLuc-CDK7 in HEK-293; assay type: binding; conditions: CDK7, 10µM
CDK20/Cyclin H = CDK20/Cyclin H (Homo sapiens, UniProt Q8IZL9); test: NanoBRET live-cell target engagement, NanoLuc-CDK20/Cyclin H in HEK-293; assay type: binding; conditions: CDK20/H, 10µM
CDK17/Cyclin Y = CDK17/Cyclin Y (Homo sapiens, UniProt Q00537); test: NanoBRET live-cell target engagement, CDK17-NanoLuc/Cyclin Y in HEK-293; assay type: binding; conditions: CDK17/Y, 10µM
[1] = average of replicates, read-out: Inhibition at 10µM (%) Average
[2] = read-out: Inhibition at 10µM (%) Replicate 1
[3] = read-out: Inhibition at 10µM (%) Replicate 2
[4] = n=3 average ± SEM, n=2 average to 2 significant figures, read-out: IC50 (nM) Average*
[5] = read-out: IC50 (nM) Replicate 1
[6] = read-out: IC50 (nM) Replicate 2

CDK10/Cyclin L2, sequence (Q15131 whole entry): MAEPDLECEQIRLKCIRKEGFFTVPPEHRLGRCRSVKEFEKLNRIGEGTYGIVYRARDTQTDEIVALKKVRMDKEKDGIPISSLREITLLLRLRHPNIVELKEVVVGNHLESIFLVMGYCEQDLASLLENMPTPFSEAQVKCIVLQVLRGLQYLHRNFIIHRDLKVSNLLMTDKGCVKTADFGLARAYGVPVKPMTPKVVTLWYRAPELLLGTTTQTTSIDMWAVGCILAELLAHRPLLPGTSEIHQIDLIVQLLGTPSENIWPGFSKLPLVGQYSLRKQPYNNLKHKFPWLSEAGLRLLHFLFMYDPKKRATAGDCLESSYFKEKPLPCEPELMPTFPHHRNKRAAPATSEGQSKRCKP

With `Cc1ncc(-c2ccnc(Nc3ccc(S(C)(=O)=O)cc3)n2)n1C(C)C` [AZD5438] the inhibition at 10 µM (CDK10/Cyclin L2; read-out: Inhibition at 10µM (%) Average, CDK10/L2, average of replicates) was 64.8%, the inhibition at 10 µM (CDK10/Cyclin L2; read-out: Inhibition at 10µM (%) Replicate 1, CDK10/L2) was 63.3% and the inhibition at 10 µM (CDK10/Cyclin L2; read-out: Inhibition at 10µM (%) Replicate 2, CDK10/L2) was 66.2%. It also gave an inhibition at 10 µM (CDK18/Cyclin Y; [1]) of 90%, an inhibition at 10 µM (CDK18/Cyclin Y; [2]) of 84.4% and an inhibition at 10 µM (CDK18/Cyclin Y; [3]) of 95.5%. It also gave an IC50 (CDK18/Cyclin Y; [4]) of 670 nM, an IC50 (CDK18/Cyclin Y; [5]) of 566 nM and an IC50 (CDK18/Cyclin Y; [6]) of 770 nM. It also gave an inhibition at 10 µM (CDK11A/Cyclin L2; [1]) of 68.9%, an inhibition at 10 µM (CDK11A/Cyclin L2; [2]) of 67.5% and an inhibition at 10 µM (CDK11A/Cyclin L2; [3]) of 70.3%. It also gave an inhibition at 10 µM (CDK13/Cyclin K; [1]) of 15.8%, an inhibition at 10 µM (CDK13/Cyclin K; [2]) of 21.6% and an inhibition at 10 µM (CDK13/Cyclin K; [3]) of 10.1%. It also gave an inhibition at 10 µM (CDK14/Cyclin Y; [1]) of 70.3%, an inhibition at 10 µM (CDK14/Cyclin Y; [2]) of 69.6% and an inhibition at 10 µM (CDK14/Cyclin Y; [3]) of 71%. It also gave an inhibition at 10 µM (CDK4/Cyclin D1; [1]) of 89.9%, an inhibition at 10 µM (CDK4/Cyclin D1; [2]) of 88.9% and an inhibition at 10 µM (CDK4/Cyclin D1; [3]) of 90.9%. The inhibition at 10 µM (CDK8/Cyclin C; [1]) was 90.5%, the inhibition at 10 µM (CDK8/Cyclin C; [2]) was 94.1% and the IC50 (CDK8/Cyclin C; [4]) was 200 nM. The IC50 (CDK8/Cyclin C; [5]) was 330 nM, the IC50 (CDK8/Cyclin C; [6]) was 79 nM and the inhibition at 10 µM (CDK1/Cyclin E1; [1]) was 78.5%. It also gave an inhibition at 10 µM (CDK1/Cyclin E1; [2]) of 78.7%, an inhibition at 10 µM (CDK1/Cyclin E1; [3]) of 78.3% and an IC50 (CDK19/Cyclin C; IC50 (nM) Average*, CDK19/Y, n=3 average ± SEM, n=2 average to 2 significant figures) of 300 nM. The IC50 (CDK19/Cyclin C; IC50 (nM) Replicate 1, CDK19/C) was 470 nM, the IC50 (CDK19/Cyclin C; IC50 (nM) Replicate 2, CDK19/C) was 140 nM and the inhibition at 10 µM (CDK19/Cyclin C; read-out: Inhibition at 10µM (%) Average, CDK19/C, average of replicates) was 92.8%. The inhibition at 10 µM (CDK19/Cyclin C; read-out: Inhibition at 10µM (%) Replicate 1, CDK19/C) was 90.6%, the inhibition at 10 µM (CDK19/Cyclin C; read-out: Inhibition at 10µM (%) Replicate 2, CDK19/C) was 95.1% and the inhibition at 10 µM (CDK6/Cyclin D1; [1]) was 91.2%. It also gave an inhibition at 10 µM (CDK6/Cyclin D1; [2]) of 90.8%, an inhibition at 10 µM (CDK6/Cyclin D1; [3]) of 91.7% and an inhibition at 10 µM (CDK15/Cyclin Y; [1]) of 72.1%. For the same compound, the inhibition at 10 µM (CDK15/Cyclin Y; [2]) was 69.4%, the inhibition at 10 µM (CDK15/Cyclin Y; [3]) was 74.8% and the inhibition at 10 µM (CDK16/Cyclin Y; [2]) was 90%. For the same compound, the inhibition at 10 µM (CDK16/Cyclin Y; [3]) was 89.6%, the inhibition at 10 µM (CDK11B/Cyclin L2; [1]) was 70.1% and the inhibition at 10 µM (CDK11B/Cyclin L2; [2]) was 70.5%. For the same compound, the inhibition at 10 µM (CDK11B/Cyclin L2; [3]) was 69.7%, the inhibition at 10 µM (CDK5/CDK5R1; [1]) was 90.8% and the inhibition at 10 µM (CDK5/CDK5R1; [2]) was 87.9%. The inhibition at 10 µM (CDK5/CDK5R1; [3]) was 93.8%, the inhibition at 10 µM (CDK7; [1]) was 77.1% and the inhibition at 10 µM (CDK7; [2]) was 71.7%. The inhibition at 10 µM (CDK7; [3]) was 82.5%, the inhibition at 10 µM (CDK20/Cyclin H; [2]) was 22.8% and the inhibition at 10 µM (CDK20/Cyclin H; [3]) was 25.6%. It also gave an inhibition at 10 µM (CDK17/Cyclin Y; [1]) of 90.7%, an inhibition at 10 µM (CDK17/Cyclin Y; [2]) of 91.3% and an inhibition at 10 µM (CDK17/Cyclin Y; [3]) of 90.1%.
